From ChEMBL document CHEMBL1145521, “Lenalidomide inhibits the malignant clone and up-regulates the SPARC gene mapping to the commonly deleted region in 5q- syndrome patients” (2007)
The source made the active and inactive calls. No cut-off for these calls is given here.

Columns and labels:
[1] = Upregulation of DEFA1 gene expression in erythroblasts from myelodysplastic syndrome del(5q) patient after 7 days relative to control; format: functional; details: Homo sapiens
[2] = Upregulation of SPARC gene expression in healthy human erythroblasts after 7 days relative to control; format: functional
[3] = Down-regulation of GYPB gene expression in erythroblasts from myelodysplastic syndrome del(5q) patient after 7 days relative to control; format: functional; details: Homo sapiens
[4] = Down-regulation of SPTA1 gene expression in healthy human erythroblasts after 7 days relative to control; format: functional
[5] = Upregulation of SEC14L5 gene expression in healthy human erythroblasts after 7 days relative to control; format: functional
[6] = Upregulation of CYP4F3 gene expression in erythroblasts from myelodysplastic syndrome del(5q) patient after 7 days relative to control; format: functional; details: Homo sapiens
[7] = Down-regulation of GYPE gene expression in erythroblasts from myelodysplastic syndrome del(5q) patient after 7 days relative to control; format: functional; details: Homo sapiens
[8] = Down-regulation of HBG2 gene expression in erythroblasts from myelodysplastic syndrome del(5q) patient after 7 days relative to control; format: functional; details: Homo sapiens
[9] = Upregulation of VSIG4 gene expression in healthy human erythroblasts after 7 days relative to control; format: functional
[10] = Growth inhibition of CD34- mononuclear cells from myelodysplastic syndrome del(5q-) patient by FISH after 7 days; format: functional, Homo sapiens
[11] = Upregulation of CYP4F3 gene expression in healthy human erythroblasts after 7 days relative to control; format: functional
[12] = Upregulation of PRG3 gene expression in erythroblasts from myelodysplastic syndrome del(5q) patient after 7 days relative to control; format: functional; details: Homo sapiens
[13] = Decrease in erythroid differentiation of CD34+ progenitor cells from myelodysplastic syndrome del(5q) patient assessed as CD36 expression after 14 days; format: functional; details: Homo sapiens
[14] = Down-regulation of CXADR gene expression in erythroblasts from myelodysplastic syndrome del(5q) patient after 7 days relative to control; format: functional; details: Homo sapiens
[15] = Upregulation of CXCL1 gene expression in healthy human erythroblasts after 7 days relative to control; format: functional
Homo sapiens [16] = species on record: Homo sapiens; test: Inhibition of cell proliferation of human bone marrow mononuclear cells assessed as [3H]thymidine incorporation upto 500 uM after 4 days; format: functional
Homo sapiens [17] = species on record: Homo sapiens; test: Growth inhibition of CD34+ progenitor cells from non-del(5q) myelodysplastic syndrome patient after 14 days; format: functional
[18] = Down-regulation of HBA2 gene expression in erythroblasts from myelodysplastic syndrome del(5q) patient after 7 days relative to control; format: functional; details: Homo sapiens
[19] = Down-regulation of ALAS2 gene expression in erythroblasts from myelodysplastic syndrome del(5q) patient after 7 days relative to control; format: functional; details: Homo sapiens
[20] = Down-regulation of HBA1 gene expression in erythroblasts from myelodysplastic syndrome del(5q) patient after 7 days relative to control; format: functional; details: Homo sapiens
[21] = Down-regulation of KLF1 gene expression in erythroblasts from myelodysplastic syndrome del(5q) patient after 7 days relative to control; format: functional; details: Homo sapiens
[22] = Upregulation of CXCL1 gene expression in erythroblasts from myelodysplastic syndrome del(5q) patient after 7 days relative to control; format: functional; details: Homo sapiens
[23] = Upregulation of PPIC gene expression in healthy human erythroblasts after 7 days relative to control; format: functional
[24] = Down-regulation of KLF1 gene expression in healthy human erythroblasts after 7 days relative to control; format: functional
[25] = Down-regulation of LRP11 gene expression in healthy human erythroblasts after 7 days relative to control; format: functional
[26] = Increase in activin A gene expression in erythroid progenitor cells from non-del(5q) myelodysplastic syndrome patient by RT-PCR after 7 days relative to control; format: functional, Homo sapiens
[27] = Upregulation of CHI3L1 gene expression in healthy human erythroblasts after 7 days relative to control; format: functional
[28] = Down-regulation of GYPB gene expression in healthy human erythroblasts after 7 days relative to control; format: functional
[29] = Down-regulation of HBBP1 gene expression in erythroblasts from myelodysplastic syndrome del(5q) patient after 7 days relative to control; format: functional; details: Homo sapiens
[30] = Upregulation of RTN1 gene expression in erythroblasts from myelodysplastic syndrome del(5q) patient after 7 days relative to control; format: functional; details: Homo sapiens
[31] = Upregulation of DSC2 gene expression in healthy human erythroblasts after 7 days relative to control; format: functional
[32] = Down-regulation of THRB gene expression in erythroblasts from myelodysplastic syndrome del(5q) patient after 7 days relative to control; format: functional; details: Homo sapiens
[33] = Down-regulation of GYPE gene expression in healthy human erythroblasts after 7 days relative to control; format: functional
[34] = Upregulation of VSIG4 gene expression in erythroblasts from myelodysplastic syndrome del(5q) patient after 7 days relative to control; format: functional; details: Homo sapiens
[35] = Down-regulation of AMMECR1 gene expression in healthy human erythroblasts after 7 days relative to control; format: functional
[36] = Decrease in myeloid differentiation of CD34+ progenitor cells from myelodysplastic syndrome del(5q) patient assessed as CD33 expression after 14 days; format: functional; details: Homo sapiens
Homo sapiens [37] = species on record: Homo sapiens; test: Inhibition of cell proliferation of CD34+ progenitor cells from myelodysplastic syndrome del(5q) patient after 14 days; format: functional
[38] = Increase in SPARC gene expression in CD34- mononuclear cells from del(5q) myelodysplastic syndrome patient by RT-PCR after 2 days relative to control
[39] = Down-regulation of LRP11 gene expression in erythroblasts from myelodysplastic syndrome del(5q) patient after 7 days relative to control; format: functional; details: Homo sapiens
[40] = Down-regulation of HBA2 gene expression in healthy human erythroblasts after 7 days relative to control; format: functional
[41] = Upregulation of SEC14L5 gene expression in erythroblasts from myelodysplastic syndrome del(5q) patient after 7 days relative to control; format: functional; details: Homo sapiens
[42] = Upregulation of DEFA1 gene expression in healthy human erythroblasts after 7 days relative to control; format: functional
[43] = Upregulation of CHI3L1 gene expression in erythroblasts from myelodysplastic syndrome del(5q) patient after 7 days relative to control; format: functional; details: Homo sapiens
[44] = Upregulation of TPBG gene expression in healthy human erythroblasts after 7 days relative to control; format: functional
[45] = Down-regulation of GYPA gene expression in healthy human erythroblasts after 7 days relative to control; format: functional
[46] = Upregulation of INHBA gene expression in healthy human erythroblasts after 7 days relative to control; format: functional
[47] = Down-regulation of HBB gene expression in healthy human erythroblasts after 7 days relative to control; format: functional
[48] = Down-regulation of TUBB2 gene expression in erythroblasts from myelodysplastic syndrome del(5q) patient after 7 days relative to control; format: functional; details: Homo sapiens
[49] = Down-regulation of ALAS2 gene expression in healthy human erythroblasts after 7 days relative to control; format: functional
[50] = Upregulation of PRG3 gene expression in healthy human erythroblasts after 7 days relative to control; format: functional
[51] = Upregulation of INHBA gene expression in erythroblasts from myelodysplastic syndrome del(5q) patient after 7 days relative to control; format: functional; details: Homo sapiens
[52] = Down-regulation of TUBB2 gene expression in healthy human erythroblasts after 7 days relative to control; format: functional
[53] = Upregulation of TPBG gene expression in erythroblasts from myelodysplastic syndrome del(5q) patient after 7 days relative to control; format: functional; details: Homo sapiens
[54] = Down-regulation of AMMECR1 gene expression in erythroblasts from myelodysplastic syndrome del(5q) patient after 7 days relative to control; format: functional; details: Homo sapiens
[55] = Upregulation of SPARC gene expression in erythroblasts from myelodysplastic syndrome del(5q) patient after 7 days relative to control; format: functional; details: Homo sapiens
[56] = Upregulation of PPIC gene expression in erythroblasts from myelodysplastic syndrome del(5q) patient after 7 days relative to control; format: functional; details: Homo sapiens
[57] = Upregulation of DSC2 gene expression in erythroblasts from myelodysplastic syndrome del(5q) patient after 7 days relative to control; format: functional; details: Homo sapiens
[58] = Down-regulation of HBB gene expression in erythroblasts from myelodysplastic syndrome del(5q) patient after 7 days relative to control; format: functional; details: Homo sapiens
[59] = Upregulation of MAOA gene expression in erythroblasts from myelodysplastic syndrome del(5q) patient after 7 days relative to control; format: functional; details: Homo sapiens
[60] = Increase in activin A gene expression in CD34- mononuclear cells from del(5q) myelodysplastic syndrome patient by RT-PCR after 7 days relative to control
[61] = Down-regulation of HBBP1 gene expression in healthy human erythroblasts after 7 days relative to control; format: functional
[62] = Decrease in erythroid differentiation of CD34+ progenitor cells from myelodysplastic syndrome del(5q) patient assessed as glycophorin A expression after 14 days; format: functional; details: Homo sapiens
[63] = Upregulation of MAOA gene expression in healthy human erythroblasts after 7 days relative to control; format: functional
[64] = Increase in activin A gene expression in CD34- mononuclear cells from del(5q) myelodysplastic syndrome patient by RT-PCR after 2 days relative to control
[65] = Down-regulation of GYPA gene expression in erythroblasts from myelodysplastic syndrome del(5q) patient after 7 days relative to control; format: functional; details: Homo sapiens
[66] = Down-regulation of THRB gene expression in healthy human erythroblasts after 7 days relative to control; format: functional
[67] = Down-regulation of HBA1 gene expression in healthy human erythroblasts after 7 days relative to control; format: functional
[68] = Upregulation of ANGPT2 gene expression in erythroblasts from myelodysplastic syndrome del(5q) patient after 7 days relative to control; format: functional; details: Homo sapiens
[69] = Upregulation of ANGPT2 gene expression in healthy human erythroblasts after 7 days relative to control; format: functional
[70] = Down-regulation of CXADR gene expression in healthy human erythroblasts after 7 days relative to control; format: functional
[71] = Increase in SPARC gene expression in CD34- mononuclear cells from del(5q) myelodysplastic syndrome patient by RT-PCR after 7 days relative to control
[72] = Down-regulation of SPTA1 gene expression in erythroblasts from myelodysplastic syndrome del(5q) patient after 7 days relative to control; format: functional; details: Homo sapiens
[73] = Down-regulation of HBG2 gene expression in healthy human erythroblasts after 7 days relative to control; format: functional
[74] = Increase in SPARC gene expression in erythroid progenitor cells from non-del(5q) myelodysplastic syndrome patient by RT-PCR after 7 days relative to control; format: functional, Homo sapiens
[75] = Upregulation of RTN1 gene expression in healthy human erythroblasts after 7 days relative to control; format: functional

Nc1cccc2c1CN(C1CCC(=O)NC1=O)C2=O (stereo not given) [LENALIDOMIDE]
Fold change [1]: 8.9
Fold change [2]: 4.8
Fold change [3]: 3.6
Fold change [4]: 4.8
Fold change [5]: 3.6
Fold change [6]: 3.1
Fold change [7]: 3
Fold change [8]: -4.4
Fold change [9]: 9.5
growth inhibition (GI) [10]: 65%
Fold change [11]: 3.5
Fold change [12]: 2.9
Activity [13]: Active
Fold change [14]: 3.6
Fold change [15]: 2.9
Activity (Homo sapiens [16]): inactive
Activity (Homo sapiens [17]): Active
Fold change [18]: 11
Fold change [19]: 3.3
Fold change [20]: 8.5
Fold change [21]: 3.7
Fold change [22]: 4.1
Fold change [23]: 10.9
Fold change [24]: 3.4
Fold change [25]: 4.8
Fold change [26]: 12.6
Fold change [27]: 10.3
Fold change [28]: 2.9
Fold change [29]: 4.9
Fold change [30]: 3.5
Fold change [31]: 3.6
Fold change [32]: 2.8
Fold change [33]: 2.2
Fold change [34]: 9.5
Fold change [35]: -3.2
Activity [36]: Active
Activity (Homo sapiens [37]): Active
Fold change [38]: 8.1
Fold change [39]: 2.4
Fold change [40]: 9.7
Fold change [41]: 2.8
Fold change [42]: 16.3
Fold change [43]: 6.1
Fold change [44]: 5.4
Fold change [45]: 9.1
Fold change [46]: 2.5
Fold change [47]: 3.4
Fold change [48]: 8.2
Fold change [49]: 7.6
Fold change [50]: 1.7
Fold change [51]: 4.9
Fold change [52]: 13.9
Fold change [53]: 4.1
Fold change [54]: 2.9
Fold change [55]: 4.1
Fold change [56]: 5.2
Fold change [57]: 3
Fold change [58]: 7.7
Fold change [59]: 3.9
Fold change [60]: 2.6
Fold change [61]: 2.8
Activity [62]: Active
Fold change [63]: 2.1
Fold change [64]: 2.5
Fold change [65]: 3.7
Fold change [66]: 2
Fold change [67]: 11.1
Fold change [68]: 3.3
Fold change [69]: 1.9
Fold change [70]: 5.9
Fold change [71]: 5.8
Fold change [72]: 4.5
Fold change [73]: -1.4
Fold change [74]: 9.3
Fold change [75]: 5.4
